Reference: US6492397B1, “N-arylheteroarylalkyl imidazol-2-one compounds for treatment of arteriosclerosis” (Pharmacia Corporation, priority 1991, dated 2002)
pIC50: −log10 of the molar value. Like-named read-outs stand apart in the source and are kept apart here.

What was measured:
[1] = tested on: pressor response to AII; assay: Assay C: In Vivo Intragastric Pressor Assay Response for AII Antagonists; set-up: species or system rat; settings: for Assay C Duration: Dose: 3 mg/kg (i.g.), Sprague-Dawley rats, AII challenges up to 180 minutes after gavage; for inhibition in vivo at 3 mg/kg: Rattus norvegicus, po
Method: Assay C: In Vivo Intragastric Pressor Assay Response for AII Antagonists
Male Sprague-Dawley rats weighing 225-300 grams were anesthetized with methohexital (30 mg/kg, i.p.) and catheters were implanted into the femoral artery and vein. The catheters were tunneled subcutaneously to exit dorsally, posterior to the head and between the scapulae. The catheters were filled with heparin (1000 units/ml of saline). The rats were returned to their cage and allowed regular rat chow and water ad libitum. After full recovery from surgery (3-4 days), rats were placed in Lucite holders and the arterial line was connected to a pressure transducer. Arterial pressure was recorded on a Gould polygraph (mmHg). Angiotensin II was administered as a 30 ng/kg bolus via the venous catheter delivered in a 50 μl volume with a 0.2 ml saline flush. The pressor response in mm Hg was measured by the difference from pre-injection arterial pressure to the maximum pressure achieved. The AII injection was repeated every 10 minutes until three consecutive injections yielded responses within 4 mmHg of each other. These three responses were then averaged and represented the control response to AII. The test compound was suspended in 0.5% methylcellulose in water and was administered by gavage. The volume administered was 2 ml/kg body weight. The standard dose was 3 mg/kg. Angiotensin II bolus injections were given at 30, 45, 60, 75, 120, 150, and 180 minutes after gavage. The pressor response to AII was measured at each time point. The rats were then returned to their cage for future testing. A minimum of 3 days was allowed between tests. Percent inhibition was calculated for each time point following gavage by the following formula: [(Control Response−Response at time point)/Control Response]×100.

[2] = molecular target: smooth muscle angiotensin II receptor; assay: Assay A: Angiotensin II Binding Activity (125I-angiotensin II displacement, rat uterine membrane preparation); settings: 50% displacement of specifically bound 125I-AII, rat uterine membranes, 25° C., 60 min
Method: Assay A: Angiotensin II Binding Activity
Compounds of the invention were tested for ability to bind to the smooth muscle angiotensin II receptor using a rat uterine membrane preparation. […] Other chemicals were obtained from Sigma Chemical Co. This assay was carried out according to the method of Douglas et al [Endocrinology, 106, 120-124 (1980)]. Rat uterine membranes were prepared from fresh tissue. All procedures were carried out at 4° C. Uteri were stripped of fat and homogenized in phosphate-buffered saline at pH 7.4 containing 5 mM EDTA. The homogenate was centrifuged at 1500×g for 20 min., and the supernatant was recentrifuged at 100,000×g for 60 min. The pellet was resuspended in buffer consisting of 2 mM EDTA and 50 mM Tris-HCl (pH 7.5) to a final protein concentration of 4 mg/ml. Assay tubes were charged with 0.25 ml of a solution containing 5 mM MgCl2, 2 mM EDTA, 0.5% bovine serum albumin, 50 mM Tris-HCl, pH 7.5 and […] (approximately 10^5 cpm) in the absence or in the presence of unlabelled ligand. The reaction was initiated by the addition of membrane protein and the mixture was incubated at 25° C. for 60 min. The incubation was terminated with ice-cold 50 mM Tris-HCl (pH 7.5) and the mixture was filtered to separate membrane-bound labelled peptide from the free ligand. The incubation tube and filter were washed with ice-cold buffer. Filters were assayed for radioactivity in a Micromedic gamma counter. Nonspecific binding was defined as binding in the presence of 10 μM of unlabelled AII. Specific binding was calculated as total binding minus nonspecific binding. […] Binding data were analyzed by a nonlinear least-squares curve fitting program.

[3] = tested on: rabbit aortic rings; assay: Assay B: In Vitro Vascular Smooth Muscle Response for AII (antagonist activity in rabbit aortic rings); type: cell-based; settings: Oryctolagus cuniculus, test antagonist at 10^-5 M, AII contraction, read-out: Assay B pA2 (converted)
Method: Assay B: In Vitro Vascular Smooth Muscle-Response for AII
The compounds of the invention were tested for antagonist activity in rabbit aortic rings. Male New Zealand white rabbits (2-2.5 kg) were sacrificed using an overdose of pentobarbital and exsanguinated via the carotid arteries. The thoracic aorta was removed, cleaned of adherent fat and connective tissue and then cut into 3-mm ring segments. The endothelium was removed from the rings by gently sliding a rolled-up piece of filter paper into the vessel lumen. The rings were then mounted in a water-jacketed tissue bath, maintained at 37° C., between moveable and fixed ends of a stainless steel wire with the moveable end attached to an FT03 Grass transducer coupled to a Model 7D Grass Polygraph for recording isometric force responses. The bath was filled with 20 ml of oxygenated (95% oxygen/5% carbon dioxide) Krebs solution of the following composition (mM): 130 NaCl, 15 NaHCO3, […], 1.2 NaH2PO4, 1.2 MgSO4, 2.5 CaCl2, and 11.4 glucose. The preparations were equilibrated for one hour before approximately one gram of passive tension was placed on the rings. Angiotensin II concentration-response curves were then recorded (3×10^−10 to 1×10^−5 M). Each concentration of AII was allowed to elicit its maximal contraction, and then AII was washed out repeatedly for 30 minutes before rechallenging with a higher concentration of AII. Aorta rings were exposed to the test antagonist at 10^−5 M for 5 minutes before challenging with AII. Adjacent segments of the same aorta ring were used for all concentration-response curves in the presence or absence of the test antagonist. The effectiveness of the test compound was expressed in terms of pA2 values and were calculated according to H. O. Schild [Br. J. Pharmacol. Chemother., 2,189-206 (1947)]. The PA2 value is the concentration of the antagonist which increases the EC50 value for AII by a factor of two. Each test antagonist was evaluated in aorta rings from two rabbits.

[4] = first value of the pair (aorta rings from two rabbits)
[5] = second value of the pair (aorta rings from two rabbits)

Row | Structure (SMILES) | melting point | pIC50 [2] | Assay C Duration [1] [min] | inhibition in vivo at 3 mg/kg [1] [%] | Kb [3, 4] [nM] | Kb [3, 5] [nM]
1 | CCCCc1cn(C2CCCCC2)c(=O)n1Cc1ccc(-c2ccccc2-c2nnn[nH]2)nc1 [Example 21, 1-cyclohexyl-4-butyl-1,3-dihydro-3-[[6-[2-(1H-tetrazol-5-yl)phenyl]-3-pyridinyl]methyl]-2H-imidazol-2-one] | 202 to 203 °C (dec.) | 7.70 | >180 | 40 | 0.724 | 0.708
2 | CCCCc1cn(CCC2CC2)c(=O)n1Cc1ccc(-c2ccccc2-c2nnn[nH]2)nc1 [Example 22, 1-(2-cyclopropylethyl)-4-butyl 1,3-dihydro3-[[6-[2-(1H-tetrazol-5-yl)phenyl]-3-pyridinyl]methyl]-2H-imidazol-2-one] | 182 to 183 °C | 8.27 | >180 | 30 | 1.78 | 1.29
3 | CCCCc1cn(CC2CCCC2)c(=O)n1Cc1ccc(-c2ccccc2-c2nnn[nH]2)nc1 [Example 24, 1-cyclopentylmethyl-4-butyl-1,3-dihydro-3-[[6-[2-(1H-tetrazol-5-yl)phenyl]-3-pyridinyl]methyl]-2H-imidazol-2-one] | 204 °C (dec.) | 7.66 | >180 | 50 | 0.646 | 2.04
4 | CCCCc1cn(CCc2cccs2)c(=O)n1Cc1ccc(-c2ccccc2-c2nnn[nH]2)nc1 [Example 25, 1-[2-(2-thienyl)ethyl]-4-butyl-1,3-dihydro-3-[[6-[2-(1H-tetrazol-5-yl)phenyl]-3-pyridinyl]methyl]-2H-imidazol-2-one] | 137 to 138 °C | 8.30 | >180 | 25 | 0.389 | 0.692
5 | CCCCc1cn(-c2ccccc2Cl)c(=O)n1Cc1ccc(-c2ccccc2-c2nnn[nH]2)nc1 [Example 32, 1-(2-chlorophenyl)-4-butyl-1,3-dihydro-3-[[6-[2-(1H-tetrazol-5-yl)phenyl]-3-pyridinyl]methyl]-2H-imidazol-2-one] | 81 to 83 °C | 8.27 | >180 | 50 | 1.58 | 0.912

Further lines, with some results ahead:

Row | melting point | pIC50 [2] | Structure (SMILES) | Assay C Duration [1] [min] | inhibition in vivo at 3 mg/kg [1] [%] | Kb [3, 4] [nM] | Kb [3, 5] [nM]
6 | 162 to 164 °C | 8.00 | CCCCCn1cc(CCCC)n(Cc2ccc(-c3ccccc3-c3nnn[nH]3)nc2)c1=O [Example 15, 1-pentyl-4-butyl-1,3-dihydro-3-[[6-[2-(1H-tetrazol-5-yl)phenyl]-3-pyridinyl]methyl]-2H-imidazol-2-one] | >180 | 60 | 1.62 | 1.41
7 | 194.5 to 195 °C | 7.92 | CCCCc1cn(CC(C)(C)C)c(=O)n1Cc1ccc(-c2ccccc2-c2nnn[nH]2)nc1 [Example 18, 1-neopentyl-4-butyl-1,3-dihydro-3-[[6-[2-(1H-tetrazol-5-yl)phenyl]-3-pyridinyl]methyl]-2H-imidazol-2-one] | >180 | 65 | 1.62 | 2.29
8 | 174 to 176 °C (dec.) | 7.80 | CCCCc1cn(CC(CC)CC)c(=O)n1Cc1ccc(-c2ccccc2-c2nnn[nH]2)nc1 [Example 20, 1-(2-ethylbutyl)-4-butyl-1,3-dihydro-3-[[6-[2-(1H-tetrazol-5-yl)phenyl]-3-pyridinyl]methyl]-2H-imidazol-2-one] | >180 | 75 | 0.676 | 1.38
